In patent US20220048915A1 (SHANGHAI PHARMACEUTICALS HOLDING CO., LTD., priority 2018, published 2022):
Read-outs that look alike come from different tables or passages of the source.

Columns and labels:
Experiment in all cases: In vitro inhibition of p38 kinase (LANCE Ultra TR-FRET)
Assay type in all cases: biochemical
p38β = p38β (Homo sapiens, UniProt Q15759)
p38α = p38α (Homo sapiens, UniProt Q16539)
p38γ = molecular target: T1, p38γ (Homo sapiens, UniProt P53778)
T1 sequence (P53778 1-367): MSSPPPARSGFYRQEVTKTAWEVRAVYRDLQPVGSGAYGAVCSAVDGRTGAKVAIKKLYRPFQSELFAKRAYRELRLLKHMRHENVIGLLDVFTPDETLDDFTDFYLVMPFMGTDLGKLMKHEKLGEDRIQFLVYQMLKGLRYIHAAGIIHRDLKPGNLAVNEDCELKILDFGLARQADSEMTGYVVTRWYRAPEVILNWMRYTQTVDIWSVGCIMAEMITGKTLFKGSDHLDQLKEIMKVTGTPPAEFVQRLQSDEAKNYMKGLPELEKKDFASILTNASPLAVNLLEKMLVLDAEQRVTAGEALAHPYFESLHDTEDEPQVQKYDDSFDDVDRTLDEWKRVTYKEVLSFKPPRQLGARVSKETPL
Procedure: 10 mM of the storage solution of the test compound was taken and placed in a 96-well compound plate, and using DMSO for the compound at an initial concentration of 100×, which was then used as the first concentration and then carried out a 3-fold gradient dilution with DMSO for a total of 10 concentrations. After that, 1 μL of gradient dilutions were added to 19 μL of 1× reaction buffer to prepare 5× compound for later use. […] To the compound-free control well was added 2 μL of the following liquid: 19 μL of 1× reaction buffer with addition of 1 μL of DMSO. To the Min control well was added 2 μL of 250 mM EDTA.
1× of LANCE® Detection value Buffer was used to prepare a 2×Antibody for use, and the amount was 5 μL per well, at the same time 10 mM EDTA was prepared for later use. After the enzyme reaction was carried out for 30 minutes, 5 μL 10 mM EDTA was added to the 384-well plate and the reaction was carried out at room temperature for 5 minutes. Afterwards, 5 μL LANCE® Ultra Europium-anti-phospho-eIF4E-binding protein 1 (Thr37/46) was added to the 384-well plate and the reaction was carried out at room temperature for one hour.

[1] = read-out: Kinase in vitro IC50(nM) p38β
[2] = read-out: Kinase in vitro IC50(nM) p38α
[3] = read-out: Kinase in vitro IC50(nM) p38γ

Chain of p38β (Q15759 whole entry): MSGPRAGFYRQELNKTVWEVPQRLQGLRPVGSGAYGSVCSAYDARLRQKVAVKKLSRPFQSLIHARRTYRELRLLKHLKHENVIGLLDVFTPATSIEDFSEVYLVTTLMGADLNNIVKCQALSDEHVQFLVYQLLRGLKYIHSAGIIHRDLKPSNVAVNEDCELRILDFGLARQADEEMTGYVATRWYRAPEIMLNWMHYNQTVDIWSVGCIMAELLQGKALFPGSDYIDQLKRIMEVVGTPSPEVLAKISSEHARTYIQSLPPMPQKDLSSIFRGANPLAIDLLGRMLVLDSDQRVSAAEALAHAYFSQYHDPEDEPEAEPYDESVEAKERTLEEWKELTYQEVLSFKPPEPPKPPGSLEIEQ
Chain of p38α (Q16539 whole entry): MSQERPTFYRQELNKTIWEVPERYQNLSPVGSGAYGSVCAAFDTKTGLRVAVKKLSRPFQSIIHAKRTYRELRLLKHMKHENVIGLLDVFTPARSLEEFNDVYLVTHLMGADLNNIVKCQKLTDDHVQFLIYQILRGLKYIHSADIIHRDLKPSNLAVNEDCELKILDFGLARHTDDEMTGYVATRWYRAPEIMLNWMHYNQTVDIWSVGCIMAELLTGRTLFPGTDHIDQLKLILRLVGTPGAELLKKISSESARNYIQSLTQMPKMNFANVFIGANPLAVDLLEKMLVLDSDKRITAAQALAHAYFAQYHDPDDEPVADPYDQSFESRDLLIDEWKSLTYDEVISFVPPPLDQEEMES

Row | SMILES | IC50 (p38β; [1]) [nM] | IC50 (p38α; [2]) [nM] | IC50 (p38γ; [3]) [nM] | IC50 (p38β) [nM] | IC50 (p38α) [nM] | IC50 (p38γ) [nM]
1 | O=c1ncn2nc(OC3CC(F)(F)C3)ccc2c1-c1c(Cl)cccc1Cl [Compound I-1, 5-(2,6-dichlorophenyl)-2-(3,3-difluorocyclobutoxy)-6H-pyrimido[1,6-b]pyridazin-6-one] | – | – | – | > 3330 | > 3330 | > 3330
2 | CCOc1ccc2c(-c3c(Cl)cccc3Cl)c(=O)ncn2n1 [Compound I-7, 5-(2,6-dichlorophenyl)-2-ethoxy-6H-pyrimido[1,6-b]pyridazin-6-one] | > 3330 | 1680 | > 3330 | – | – | –
3 | O=c1ncn2nc(OCC(F)F)ccc2c1-c1c(Cl)cccc1Cl [Compound I-8, 5-(2,6-dichlorophenyl)-2-(2,2-difluoroethoxy)-6H-pyrimido[1,6-b]pyridazin-6-one] | > 3330 | > 3330 | > 3330 | – | – | –
4 | COc1ccc(Oc2ccc3c(-c4c(Cl)cccc4Cl)c(=O)ncn3n2)c(Cl)c1 [Compound I-9, 2-(2-chloro-4-methoxyphenoxy)-5-(2,6-dichlorophenyl)-6H-pyrimido[1,6-b]pyridazin-6-one] | 301 | 112 | > 3330 | – | – | –
5 | Cc1ccc(Oc2ccc3c(-c4c(Cl)cccc4Cl)c(=O)ncn3n2)cc1F [Compound I-11, 5-(2,6-dichlorophenyl)-2-(3-fluoro-4-methylphenoxy)-6H-pyrimido[1,6-b]pyridazin-6-one] | 1220 | 137 | > 3330 | – | – | –
6 | O=c1ncn2nc(NC3CC(F)(F)C3)ccc2c1-c1c(Cl)cccc1Cl [Compound I-14, 5-(2,6-dichlorophenyl)-2-((3,3-difluorocyclobutyl)amino)-6H-pyrimido[1,6-b]pyridazin-6-one] | > 3330 | 1350 | > 3330 | – | – | –
7 | O=c1ncn2nc(Oc3cncc(F)c3)ccc2c1-c1c(Cl)cccc1Cl [Compound I-24, 5-(2,6-dichlorophenyl)-2-((5-fluoropyridin-3-yl)oxy)-6H-pyrimido[1,6-b]pyridazin-6-one] | > 3330 | 1980 | > 3330 | – | – | –
8 | N#Cc1ccc(Oc2ccc3c(-c4c(Cl)cccc4Cl)c(=O)ncn3n2)cc1 [Compound I-26, 4-((5-(2,6-dichlorophenyl)-6-oxo-6H-pyrimido[1,6-b]pyridazin-2-yl)oxy)benzonitrile] | > 3330 | > 3330 | > 3330 | – | – | –
9 | O=c1ncn2nc(Oc3ccc(Cl)cc3)ccc2c1-c1c(Cl)cccc1Cl [Compound I-33] | 470 | 24 | > 3330 | – | – | –
10 | Cc1cc(Cl)ccc1Oc1ccc2c(-c3c(Cl)cccc3Cl)c(=O)ncn2n1 [Compound I-34, 2-(4-chloro-2-methylphenoxy)-5-(2,6-dichlorophenyl)-6H-pyrimido[1,6-b]pyridazin-6-one] | 389 | 49.8 | > 3330 | – | – | –
11 | O=c1ncn2nc(OC3C=CCCC3)ccc2c1-c1c(Cl)cccc1Cl (stereo not drawn) [Compound I-37, 2-(cyclohex-2-en-1-yloxy)-5-(2,6-dichlorophenyl)-6H-pyrimido[1,6-b]pyridazin-6-one] | 2830 | 503 | > 3330 | – | – | –
12 | O=c1ncn2nc(OC3CC=CC3)ccc2c1-c1c(Cl)cccc1Cl [Compound I-38, 2-(cyclopent-3-en-1-yloxy)-5-(2,6-dichlorophenyl)-6H-pyrimido[1,6-b]pyridazin-6-one] | 2160 | 414 | > 3330 | – | – | –
13 | CC(Oc1ccc2c(-c3c(Cl)cccc3Cl)c(=O)ncn2n1)c1ccc(F)cc1F (stereo not drawn) [Compound I-41, 5-(2,6-dichlorophenyl)-2-(1-(2,4-difluorophenyl)ethoxy)-6H-pyrimido[1,6-b]pyridazin-6-one] | > 3330 | > 3330 | > 3330 | – | – | –
14 | Cc1cccc(C)c1-c1c(=O)ncn2nc(Oc3ccc(F)cc3F)ccc12 [Compound I-45, 2-(2,4-difluorophenoxy)-5-(2,6-dimethylphenyl)-6H-pyrimido[1,6-b]pyridazin-6-one] | 643 | 35.4 | > 3330 | – | – | –
15 | O=c1ncn2nc(Oc3ccc(F)cc3F)ccc2c1-c1c(F)cccc1F [Compound I-49, 2-(2,4-difluorophenoxy)-5-(2,6-difluorophenyl)-6H-pyrimido[1,6-b]pyridazin-6-one] | 213 | 14.1 | > 3330 | – | – | –
16 | CNC(=O)c1ccc(Cl)c(-c2c(=O)ncn3nc(Oc4ccc(F)cc4F)ccc23)c1 [Compound I-51, 4-chloro-3-(2-(2,4-difluorophenoxy)-6-oxo-6H-pyrimido[1,6-b]pyridazin-5-yl)-N-methylbenzamide] | 256 | 17.5 | > 3330 | – | – | –
17 | COC(=O)c1ccc(OC)c(-c2c(=O)ncn3nc(Oc4ccc(F)cc4F)ccc23)c1 [Compound I-55, methyl 3-[2-(2,4-difluorophenoxy)-6-oxo-pyrimido[1,6-b]pyridazin-5-yl]-4-methoxybenzoate] | 117 | 17.7 | > 3330 | – | – | –

Now from value to molecule, other results behind:

Row | IC50 (p38β; [1]) [nM] | IC50 (p38α; [2]) [nM] | IC50 (p38γ; [3]) [nM] | SMILES | IC50 (p38β) [nM] | IC50 (p38α) [nM] | IC50 (p38γ) [nM]
18 | > 3330 | 2690 | > 3330 | O=c1ncn2nc(OC3CCOCC3)ccc2c1-c1c(Cl)cccc1Cl [Compound I-2, 5-(2,6-dichlorophenyl)-2-((tetrahydro-2H-pyran-4-yl)oxy)-6H-pyrimido[1,6-b]pyridazin-6-one] | – | – | –
19 | > 3330 | > 3330 | > 3330 | O=c1ncn2nc(OC3CCOC3)ccc2c1-c1c(Cl)cccc1Cl (stereo not drawn) [Compound I-3, 5-(2,6-dichlorophenyl)-2-((tetrahydrofuran-3-yl)oxy)-6H-pyrimido[1,6-b]pyridazin-6-one] | – | – | –
20 | > 3330 | > 3330 | > 3330 | O=c1ncn2nc(OCC(F)(F)F)ccc2c1-c1c(Cl)cccc1Cl [Compound I-13, 5-(2,6-dichlorophenyl)-2-(2,2,2-trifluoroethoxy)-6H-pyrimido[1,6-b]pyridazin-6-one] | – | – | –
21 | 1430 | 151 | > 3330 | O=c1ncn2nc(Oc3cccc(F)c3)ccc2c1-c1c(Cl)cccc1Cl [Compound I-25, 5-(2,6-dichlorophenyl)-2-(3-fluorophenoxy)-6H-pyrimido[1,6-b]pyridazin-6-one] | – | – | –
22 | > 3330 | 38.8 | > 3330 | Cc1cc(F)ccc1Oc1ccc2c(-c3c(Cl)cccc3Cl)c(=O)ncn2n1 [Compound I-28, 5-(2,6-dichlorophenyl)-2-(4-fluoro-2-methylphenoxy)-6H-pyrimido[1,6-b]pyridazin-6-one] | – | – | –
23 | 686 | 228 | > 3330 | O=c1ncn2nc(OC3CCCC=C3Cl)ccc2c1-c1c(Cl)cccc1Cl (stereo not drawn) [Compound I-42, 2-((2-chlorocyclohex-2-en-1-yl)oxy)-5-(2,6-dichlorophenyl)-6H-pyrimido[1,6-b]pyridazin-6-one] | – | – | –
24 | 635 | 31 | > 3330 | O=c1ncn2nc(Oc3ccc(F)cc3F)ccc2c1C1=CCCCC1 [Compound I-44, 5-(cyclohex-1-en-1-yl)-2-(2,4-difluorophenoxy)-6H-pyrimido[1,6-b]pyridazin-6-one] | – | – | –
25 | 947 | 54.2 | > 3330 | O=c1ncn2nc(Oc3ccc(F)cc3F)ccc2c1-c1cccc(Cl)c1Cl [Compound I-52, 5-(2,3-dichlorophenyl)-2-(2,4-difluorophenoxy)-6H-pyrimido[1,6-b]pyridazin-6-one] | – | – | –
